Measurements: PubChem BioAssay (NCI)
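Test compounds were applied to cells in 96-well plates for 48 hours at 5 doses. GI50 = concentration required for 50% inhibition of growth. The concentration for full growth arrest is given as TGI.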

Legend:
Assay in all cases: growth of human tumour cells (NCI), 48 h
HS 578T breast = tested on: HS 578T breast
NCI/ADR-RES ovarian = tested on: NCI/ADR-RES ovarian
HOP-62 NSCLC = tested on: HOP-62 NSCLC
EKVX NSCLC = tested on: EKVX NSCLC
OVCAR-8 ovarian = tested on: OVCAR-8 ovarian
CAKI-1 renal = tested on: CAKI-1 renal
SF-539 CNS = tested on: SF-539 CNS
UO-31 renal = tested on: UO-31 renal

Compound	GI50 (HS 578T breast)	TGI (HS 578T breast)	GI50 (NCI/ADR-RES ovarian)	TGI (NCI/ADR-RES ovarian)	GI50 (HOP-62 NSCLC)	TGI (HOP-62 NSCLC)	GI50 (EKVX NSCLC)	TGI (EKVX NSCLC)	GI50 (OVCAR-8 ovarian)	TGI (OVCAR-8 ovarian)	GI50 (CAKI-1 renal)	TGI (CAKI-1 renal)	GI50 (SF-539 CNS)	TGI (SF-539 CNS)	GI50 (UO-31 renal)	TGI (UO-31 renal)
C=C1C(OC/C=C/COC2O[C@@H]3O[C@@]4(C)CC[C@H]5[C@H](C)CC[C@@H](C2=C)[C@@]35OO4)O[C@@H]2O[C@@]3(C)CC[C@H]4[C@H](C)CC[C@@H]1[C@@]24OO3 (some centres not stated)	12.6 µM	59.6 µM	0.203 µM	18.1 µM	15.8 µM	41.5 µM	11.5 µM	31.9 µM	1.96 µM	> 36.6 µM	1.63 µM	21.7 µM	10 µM	25.2 µM	2.23 µM	> 39.4 µM
CN(C)CCSCCO	–	> 100 µM	–	> 100 µM	–	> 100 µM	–	> 100 µM	–	> 100 µM	–	> 100 µM	–	> 100 µM	–	> 100 µM
COc1cc(C2CC(=O)Nc3c2ccc2ccccc32)cc(Br)c1OC (configuration not stated)	0.376 µM	> 23.2 µM	0.279 µM	1.13 µM	0.753 µM	> 100 µM	–	–	0.772 µM	> 51.1 µM	0.375 µM	> 100 µM	0.583 µM	15.1 µM	2.24 µM	> 34.5 µM
O=C1c2ccccc2-c2c1c1ccc([N+](=O)[O-])cc1c(=O)n2CCCNCCO	1.11 µM	4.39 µM	0.65 µM	3.19 µM	0.0408 µM	0.544 µM	–	> 21 µM	0.225 µM	3.64 µM	0.126 µM	1.81 µM	–	–	0.0989 µM	1.06 µM
Cc1cnccc1N=Nc1ccc(N(C)C)cc1	–	> 100 µM	–	46.4 µM	–	> 100 µM	–	32.9 µM	–	60.1 µM	–	> 100 µM	–	69.2 µM	–	> 100 µM
NCCCN1CCN(CCCNc2nc3ccccc3c3[nH]c4ccccc4c23)CC1	0.521 µM	2.89 µM	3.1 µM	22 µM	0.26 µM	1.08 µM	1.31 µM	6.22 µM	0.131 µM	3.88 µM	0.414 µM	3.45 µM	0.438 µM	1.5 µM	0.771 µM	11.8 µM
O=c1oc2c3ccc4cnccc4c3[nH]c2c2ccccc12	21.3 µM	> 100 µM	66.4 µM	> 100 µM	3 µM	8.3 µM	76.5 µM	> 100 µM	16.1 µM	> 100 µM	47 µM	> 100 µM	11.5 µM	25.2 µM	22.9 µM	> 100 µM
C=C(CNC(=O)c1ccccc1)c1ccc(C(=O)Nc2ccccc2N)cc1	20 µM	> 100 µM	2.35 µM	> 100 µM	63.7 µM	> 100 µM	> 100 µM	> 100 µM	5.61 µM	> 100 µM	4.09 µM	45.4 µM	1.38 µM	> 100 µM	2.78 µM	> 100 µM
